Earlier results in patent US20050239746A1, “Pharmaceutical composition” (priority 2002, published 2005).

Experiments:
[1] = test system: isolated guinea pig trachea; settings: 0.1M aqueous solution in 40% w/v 2-hydroxypropyl-beta-cyclodextrin
[2] = intravenous infusion, 3 g single dose, 8 healthy volunteers

Molecule | muscle relaxant activity compared with the lipid emulsion [1] | safety and tolerability [2]
CC(C)c1cccc(C(C)C)c1O [Propofol, 2,6 di-isopropylphenol] | three times higher | 
2-hydroxypropyl-beta-cyclodextrin [Encapsin-HPB] |  | safe and well tolerated
